Assay results taken from article PMC10897196, “Structure–activity characteristics of phenylalanine analogs selectively transported by L-type amino acid transporter 1 (LAT1)” (Scientific Reports, 2024).
Several values for one entry are separate records, joined by “and”; a condition that tells them apart may be missing. Equal entries are not always repeated.

How the values were obtained:
human LAT2 [1] = molecular target: T1, human LAT2 (Homo sapiens, UniProt Q9UHI5); assay: Inhibition of L-[14C]alanine uptake in HEK293-hLAT2 cells; type: cell-based; conditions: for Inhibition of LAT2-mediated L-[14C]alanine uptake (in words, rank order): 1 μM L-[14C]alanine, 1 min, compounds at 10, 30, 100 μM; for Ki: L-[14C]alanine uptake, HEK293-hLAT2, mean ± S.E.M., n = 3–4, read-out: Ki (μM) LAT2
T1 construct: expressed in transfected cells
T1 sequence (Q9UHI5 1-535): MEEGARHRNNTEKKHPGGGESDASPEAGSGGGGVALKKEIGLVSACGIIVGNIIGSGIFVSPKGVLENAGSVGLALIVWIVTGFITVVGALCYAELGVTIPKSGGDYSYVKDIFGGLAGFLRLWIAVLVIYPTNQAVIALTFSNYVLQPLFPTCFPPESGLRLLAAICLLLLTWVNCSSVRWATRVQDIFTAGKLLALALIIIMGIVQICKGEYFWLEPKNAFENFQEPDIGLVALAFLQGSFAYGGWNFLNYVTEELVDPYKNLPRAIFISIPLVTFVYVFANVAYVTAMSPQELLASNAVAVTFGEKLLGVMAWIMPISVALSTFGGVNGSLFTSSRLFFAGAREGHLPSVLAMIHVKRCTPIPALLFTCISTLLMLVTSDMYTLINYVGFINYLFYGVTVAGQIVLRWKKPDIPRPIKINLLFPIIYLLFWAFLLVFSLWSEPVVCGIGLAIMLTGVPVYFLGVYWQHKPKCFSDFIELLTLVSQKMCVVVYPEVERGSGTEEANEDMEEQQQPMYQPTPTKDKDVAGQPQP
T1 sequence (P08195 1-529 partner): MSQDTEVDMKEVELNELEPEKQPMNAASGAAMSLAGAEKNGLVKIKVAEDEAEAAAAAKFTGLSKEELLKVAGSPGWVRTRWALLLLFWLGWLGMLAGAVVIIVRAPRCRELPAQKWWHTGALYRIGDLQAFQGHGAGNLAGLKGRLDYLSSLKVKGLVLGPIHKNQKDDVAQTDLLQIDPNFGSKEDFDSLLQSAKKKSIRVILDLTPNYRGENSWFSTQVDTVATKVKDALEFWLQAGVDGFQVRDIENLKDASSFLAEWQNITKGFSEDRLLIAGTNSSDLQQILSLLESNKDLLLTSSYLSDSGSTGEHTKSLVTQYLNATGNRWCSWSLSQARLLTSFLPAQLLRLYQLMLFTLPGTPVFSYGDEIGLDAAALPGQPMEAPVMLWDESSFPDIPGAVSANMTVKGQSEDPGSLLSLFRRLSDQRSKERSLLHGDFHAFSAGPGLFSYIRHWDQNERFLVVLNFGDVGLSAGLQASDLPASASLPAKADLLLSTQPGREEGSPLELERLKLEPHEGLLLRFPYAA
Description: (§1) In this study, we used the HEK293 cells stably expressing human LAT1 or human LAT2, which form a heterodimeric complex with endogenous 4F2hc (CD98hc), required for plasma membrane localization. We first explored the impact of halogen group positioning in the benzene ring of Phe (Fig. 1) on its interaction with LAT1 and LAT2. […] We conducted inhibition experiments to measure the uptake of L-[^14C]leucine by LAT1 and L-[^14C]alanine by LAT2 in the presence or absence of Phe derivatives with an iodo group at position 2, 3, or 4 in the benzene ring.
(§2) The inhibition experiments were performed as described previously. HEK293-hLAT1 (1.5 × 10^5 cells/well) or HEK293-hLAT2 (2 × 10^5 cells/well) cells were plated onto poly-D-lysine-coated 24-well plates (Corning, New York, USA). Following a 2-day culture period, the uptake of 1 μM L-[^14C]leucine or L-[^14C]alanine was measured for 1 min in the absence or presence of non-radiolabeled test compounds at concentrations of 10, 30, and 100 μM. Radioactivity was quantified using a β-scintillation counter (LSC-3100; Aloka, Tokyo, Japan), and protein concentrations were determined with a Micro BCA Protein Assay Kit (Thermo Fisher Scientific, Rockford, IL). To calculate Ki values, the concentration-dependent uptake of L-[^14C]leucine or L-[^14C]alanine was analyzed in the presence and absence of test compounds[49]. The data were plotted against substrate concentration and fitted to Michaelis–Menten kinetics. Ki values were derived using nonlinear regression analysis with the enzyme kinetics inhibition module in GraphPad Prism software (Version 10.0.2; GraphPad Software Inc., San Diego, CA, USA).

human LAT1 [2] = molecular target: T2, human LAT1 (Homo sapiens, UniProt Q01650); assay: Inhibition of L-[14C]leucine uptake in HEK293-hLAT1 cells; type: cell-based; conditions: for Inhibition of LAT1-mediated L-[14C]leucine uptake (in words, rank order): 1 μM L-[14C]leucine, 1 min, compounds at 10, 30, 100 μM; for Ki: L-[14C]leucine uptake, HEK293-hLAT1, mean ± S.E.M., n = 3–4, read-out: Ki (μM) LAT1; for Ki ratio (LAT2/LAT1): LAT1 selectivity, LAT2 Ki over LAT1 Ki
T2 construct: expressed in transfected cells
T2 sequence (Q01650 whole entry, one chain of several): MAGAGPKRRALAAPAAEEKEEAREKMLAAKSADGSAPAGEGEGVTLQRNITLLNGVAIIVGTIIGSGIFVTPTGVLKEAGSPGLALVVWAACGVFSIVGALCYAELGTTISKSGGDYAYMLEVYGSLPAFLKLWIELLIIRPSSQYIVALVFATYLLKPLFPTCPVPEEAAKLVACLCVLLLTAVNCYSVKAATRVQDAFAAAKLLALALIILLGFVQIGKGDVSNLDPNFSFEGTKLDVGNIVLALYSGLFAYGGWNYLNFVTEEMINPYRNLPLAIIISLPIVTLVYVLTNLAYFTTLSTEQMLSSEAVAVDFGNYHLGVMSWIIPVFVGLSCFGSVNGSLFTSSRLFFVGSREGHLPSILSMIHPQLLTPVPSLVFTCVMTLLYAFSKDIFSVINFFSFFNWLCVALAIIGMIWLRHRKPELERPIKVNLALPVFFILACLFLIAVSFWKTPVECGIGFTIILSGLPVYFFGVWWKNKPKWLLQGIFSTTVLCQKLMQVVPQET
Description: as §1, §2

human LAT2 [3] = molecular target: T1, human LAT2; assay: Efflux of pre-loaded L-[14C]alanine from HEK293-hLAT2 cells induced by extracellular compounds; type: cell-based; conditions: for Vmax of efflux (% radioactivity/min): LAT2, L-[14C]alanine efflux, mean ± S.E.M., n = 3; for Vmax of efflux (% radioactivity/min) / LAT2-mediated L-[14C]alanine efflux induced (in words): 1 min; for LAT2-mediated L-[14C]alanine efflux induced (in words): compounds at 10, 30, 100 μM
Experimental: (§3) We evaluated the efflux of pre-loaded L-[^14C]leucine from LAT1 and pre-loaded L-[^14C]alanine from LAT2 induced by extracellularly applied compounds.
(§4) Efflux experiments were performed as described previously. Cells cultured 48 h were pre-loaded with 5 μM L-[^14C]leucine or L-[^14C]alanine for 10 min at 37 °C. The cells were then washed, and the efflux was induced by incubating cells for 1 min in either the absence or presence of non-radiolabeled test compounds at indicated concentrations. The efflux time of 1 min fell within the linear range of time-dependent substrate efflux mediated by LAT1 and LAT2 (Supplementary Fig. S2). Following incubation, the medium was collected and radioactivity was measured in both the medium and the cells. Efflux was quantified as the percentage of radioactivity released into the medium, calculated using the formula: radioactivity of medium/(radioactivity of medium + radioactivity of cells) × 100%.
(§5) The kinetic parameters for the efflux of L-[^14C]leucine or L-[^14C]alanine induced by various concentrations of extracellularly-applied test compounds were analyzed. The baseline efflux values—those obtained in the absence of test compounds—were subtracted from the values measured in the presence of the compounds. The resultant data were fitted to Michaelis–Menten kinetics to determine the Km and Vmax by nonlinear regression analysis using “enzyme kinetics-velocity as a function of substrate” module within GraphPad Prism software.

human LAT1 [4] = molecular target: T2, human LAT1; assay: Efflux of pre-loaded L-[14C]leucine from HEK293-hLAT1 cells induced by extracellular compounds; type: cell-based; conditions: for Km / Vmax of efflux (% radioactivity/min): LAT1, L-[14C]leucine efflux, mean ± S.E.M., n = 3; for Km / Vmax of efflux (% radioactivity/min) / LAT1-mediated L-[14C]leucine efflux induced (in words): 1 min; for LAT1-mediated L-[14C]leucine efflux induced (in words): compounds at 10, 30, 100 μM
Experimental: as §3, §4, §5

[5] = design: method as in PMID 11901210; conditions: correlated with LAT1 Ki; cited from earlier work

| SMILES | Inhibition of LAT2-mediated L-[14C]alanine uptake (in words, rank order) (human LAT2 [1]) | Inhibition of LAT1-mediated L-[14C]leucine uptake (in words, rank order) (human LAT1 [2]) | Ki (human LAT2 [1]) | Ki (human LAT1 [2]) | Ki ratio (LAT2/LAT1) (human LAT1 [2]) | Vmax of efflux (% radioactivity/min) (human LAT2 [3]) | LAT2-mediated L-[14C]alanine efflux induced (in words) (human LAT2 [3]) | Km (human LAT1 [4]) | Vmax of efflux (% radioactivity/min) (human LAT1 [4]) | LAT1-mediated L-[14C]leucine efflux induced (in words) (human LAT1 [4]) | Ratio to Vmax of Phe (human LAT2 [3]; LAT2 efflux) | Ratio to Vmax of Phe (human LAT1 [4]; LAT1 efflux) | Carbonyl oxygen charge [5] |
| --- | --- | --- | --- | --- | --- | --- | --- | --- | --- | --- | --- | --- | --- |
| N[C@@H](Cc1ccccc1I)C(=O)O [2-I-Phe, 2-iodo-L-phenylalanine] | 2-I-Phe = Phe | markedly inhibited and 2-Br-Phe < 2-I-Phe and inhibit | 87.6 ± 11.9 µM | 9.56 ± 1.67 µM | 9.16 | 39.65 ± 0.44 % radioactivity/min | comparable to that of Phe | 2.79 ± 0.76 µM | 7.62 ± 0.30 % radioactivity/min | transported by LAT1 as substrates |  |  |  |
| C[C@](N)(Cc1ccccc1)C(=O)O [α-methyl-Phe, α-Methyl-L-phenylalanine, reference compound] | minimal inhibition | inhibit | 1680 ± 272 µM | 157 ± 19.5 µM | 10.74 | 27.28 ± 0.70 % radioactivity/min | not efficiently transported by LAT2 | 67.9 ± 7.39 µM | 15.45 ± 0.45 % radioactivity/min | transported by LAT1 as substrates |  |  |  |
| N[C@@H](Cc1cccc(I)c1)C(=O)O [3-I-Phe] | 4-I-Phe < 3-I-Phe and 3-Br-Phe < 3-I-Phe | markedly inhibited and 3-Br-Phe < 3-I-Phe |  |  |  |  |  |  |  |  |  |  |  |
| N[C@@H](Cc1ccccc1)C(=O)O [Phe, phenylalanine] |  | inhibit | 110 ± 20 µM | 43.5 ± 6.28 µM | 2.53 | 39.60 ± 0.74 % radioactivity/min |  | 8.92 ± 1.08 µM | 13.32 ± 0.31 % radioactivity/min | induced a notable efflux | (1.00) | (1.00) |  |
| N[C@H](C(=O)O)c1ccccc1 [Phg, L-phenylglycine] | minimal inhibition | inhibit | 242 ± 20.8 µM | 96.8 ± 13.2 µM | 2.50 |  |  |  |  |  |  |  |  |
| C[C@](N)(Cc1ccc(O)c(O)c1)C(=O)O [α-methyl-DOPA] |  |  |  |  |  |  |  |  |  |  |  |  | −0.5558 |
| C[C@](N)(Cc1ccc(O)cc1)C(=O)O [α-methyl-Tyr] |  |  |  |  |  |  |  |  |  |  |  |  | −0.5579 |

Second part, led by results:

| Inhibition of LAT2-mediated L-[14C]alanine uptake (in words, rank order) (human LAT2 [1]) | Inhibition of LAT1-mediated L-[14C]leucine uptake (in words, rank order) (human LAT1 [2]) | Ki (human LAT2 [1]) | Ki (human LAT1 [2]) | Ki ratio (LAT2/LAT1) (human LAT1 [2]) | Vmax of efflux (% radioactivity/min) (human LAT2 [3]) | LAT2-mediated L-[14C]alanine efflux induced (in words) (human LAT2 [3]) | Km (human LAT1 [4]) | Vmax of efflux (% radioactivity/min) (human LAT1 [4]) | LAT1-mediated L-[14C]leucine efflux induced (in words) (human LAT1 [4]) | Ratio to Vmax of Phe (human LAT2 [3]; LAT2 efflux) | Ratio to Vmax of Phe (human LAT1 [4]; LAT1 efflux) | SMILES | Carbonyl oxygen charge [5] |
| --- | --- | --- | --- | --- | --- | --- | --- | --- | --- | --- | --- | --- | --- |
| Phe < 4-I-Phe | comparable to that of Phe |  |  |  |  |  |  |  |  |  |  | N[C@@H](Cc1ccc(I)cc1)C(=O)O [4-I-Phe] |  |
| 3-Cl-Phe < 3-Br-Phe | 3-Cl-Phe < 3-Br-Phe |  |  |  |  |  |  |  |  |  |  | N[C@@H](Cc1cccc(Br)c1)C(=O)O [3-Br-Phe, 3-Bromo-L-phenylalanine] |  |
